Source: ChEMBL document CHEMBL5537195, “Novel Covalent Probe Selectively Targeting Glutathione Peroxidase 4 In Vivo: Potential Applications in Pancreatic Cancer Therapy” (J Med Chem, 2024)
Active and inactive are the calls of the source. The rule behind the calls is not given here.

Tests used:
ASPC1 [1] = experiment: Antiproliferative activity against human AsPC1 cells assessed as inhibition of cell growth incubated for 72 hrs by CCK-8 assay; type: functional, cell-based; conditions: ASPC1, 72 h
CFPAC-1 = experiment: Antiproliferative activity against human CFPAC-1 cells assessed as inhibition of cell growth incubated for 72 hrs by CCK-8 assay; type: functional, cell-based; conditions: CFPAC-1, 72 h
BXPC-3 = experiment: Antiproliferative activity against human BXPC-3 cells assessed as inhibition of cell growth incubated for 72 hrs by CCK-8 assay; type: functional, cell-based; conditions: BXPC-3, 72 h
HPAF-II = experiment: Antiproliferative activity against human HPAF-II cells assessed as inhibition of cell growth incubated for 72 hrs by CCK-8 assay; type: functional, cell-based
[2] = AUC (0 to t) in Sprague-Dawley rat at 2 mg/kg, iv measured upto 48 hrs by LC-MS/MS analysis; type: ADME, organism-based; conditions: in vivo
[3] = Toxicity in NOD-SCID mouse xenografted with human ASPC1 cells assessed as mortality at 10 mg/kg, ip administered for once daily for 14 days; type: organism-based; conditions: in vivo, 336 h, time 14 day
[4] = target: T1, Phospholipid hydroperoxide glutathione peroxidase GPX4 (Homo sapiens) (UniProt P36969); experiment: Binding affinity to GPX4 in human ASPC1 cells at 0.2 uM by SDS-PAGE analysis; type: cell-based; conditions: time 0.1 hrs, TDE = time-dependent effect
T1 sequence (whole entry): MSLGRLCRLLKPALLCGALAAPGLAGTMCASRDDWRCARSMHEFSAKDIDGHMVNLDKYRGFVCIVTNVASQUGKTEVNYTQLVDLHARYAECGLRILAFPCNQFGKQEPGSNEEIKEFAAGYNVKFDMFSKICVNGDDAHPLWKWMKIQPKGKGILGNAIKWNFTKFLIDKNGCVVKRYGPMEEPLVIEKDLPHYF

[5] = target: T1, Phospholipid hydroperoxide glutathione peroxidase GPX4 (Homo sapiens); experiment: Binding affinity to GPX4 in human ASPC1 cells incubated for 1 hr by SDS-PAGE analysis; type: cell-based; conditions: dose 0.02-0.2 µM
[6] = target: T1, Phospholipid hydroperoxide glutathione peroxidase GPX4 (Homo sapiens); experiment: Binding affinity to GPX4 in human ASPC1 cells at 0.2 uM incubated for 1 hr in presence of N-ethynyl-N-methyl-4-((methyl(4(trifluoromethyl)phenyl)amino)methyl)benzenesulfonamide by SDS-PAGE analysis; type: cell-based
[7] = target: T1, Phospholipid hydroperoxide glutathione peroxidase GPX4 (Homo sapiens); experiment: Binding affinity to GPX4 in human BXPC-3 cells at 0.2 uM incubated for 1 hr by SDS-PAGE analysis; type: cell-based
[8] = target: T1, Phospholipid hydroperoxide glutathione peroxidase GPX4 (Homo sapiens); experiment: Binding affinity to GPX4 in human SW1990 cells at 0.2 uM incubated for 1 hr by SDS-PAGE analysis; type: cell-based
[9] = target: T1, Phospholipid hydroperoxide glutathione peroxidase GPX4 (Homo sapiens); experiment: Binding affinity to GPX4 in human HPAF-II cells at 0.2 uM incubated for 1 hr by SDS-PAGE analysis; type: cell-based
[10] = target: T1, Phospholipid hydroperoxide glutathione peroxidase GPX4 (Homo sapiens); experiment: Binding affinity to GPX4 in human MIA PaCa-2 cells at 0.2 uM incubated for 1 hr by SDS-PAGE analysis; type: cell-based
[11] = target: T1, Phospholipid hydroperoxide glutathione peroxidase GPX4 (Homo sapiens); experiment: Binding affinity to GPX4 in human PANC-1 cells at 0.2 uM incubated for 1 hr by SDS-PAGE analysis; type: cell-based
[12] = target: T1, Phospholipid hydroperoxide glutathione peroxidase GPX4 (Homo sapiens); experiment: Binding affinity to GPX4 in human Capan-2 cells at 0.2 uM incubated for 1 hr by SDS-PAGE analysis; type: cell-based
[13] = target: T1, Phospholipid hydroperoxide glutathione peroxidase GPX4 (Homo sapiens); experiment: Binding affinity to GPX4 in human ASPC1 cells at 0.2 uM incubated for 12 hr followed by compound washout by SDS-PAGE analysis; type: cell-based
[14] = target: T2, Phosphoglycerate kinase 1 (Homo sapiens) (UniProt P00558); experiment: Binding affinity to PGK1 in human ASPC1 cells at 1 uM incubated for 5 hrs by Western blot analysis; type: cell-based
T2 sequence (whole entry): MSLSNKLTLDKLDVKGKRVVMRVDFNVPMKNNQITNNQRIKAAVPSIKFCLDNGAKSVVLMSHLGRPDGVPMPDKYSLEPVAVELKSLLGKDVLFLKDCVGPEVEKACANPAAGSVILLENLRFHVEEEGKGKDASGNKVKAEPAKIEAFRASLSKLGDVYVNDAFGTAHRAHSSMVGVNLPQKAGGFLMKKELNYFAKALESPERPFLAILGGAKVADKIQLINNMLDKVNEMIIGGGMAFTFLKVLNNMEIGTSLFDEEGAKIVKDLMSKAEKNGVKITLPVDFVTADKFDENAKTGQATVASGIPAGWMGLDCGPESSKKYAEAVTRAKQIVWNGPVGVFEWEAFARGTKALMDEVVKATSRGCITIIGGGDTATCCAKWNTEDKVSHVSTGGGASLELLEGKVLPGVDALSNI

[15] = target: Large ribosomal subunit protein eL28 (Homo sapiens) (UniProt P46779); experiment: Binding affinity to RL28 in human ASPC1 cells at 1 uM incubated for 5 hrs by Western blot analysis; type: cell-based
[16] = target: T1, Phospholipid hydroperoxide glutathione peroxidase GPX4 (Homo sapiens); experiment: Competitive binding affinity to GPX4 (unknown origin) at 0.2 uM incubated for 5 hrs in presence of 4-(((4-(benzo[d]thiazol-2-yl)phenyl)(methyl)amino)methyl)-N-ethynyl-N-methylbenzenesulfonamide by pull-down based Western blot analysis
Homo sapiens = species: Homo sapiens; experiment: Binding affinity to GPX4 U46C mutant (unknown origin) incubated for 1 hr by pull-down based Western blot analysis; conditions: dose 0.2-5 µM
[17] = target: T1, Phospholipid hydroperoxide glutathione peroxidase GPX4 (Homo sapiens); experiment: Competitive binding affinity to GPX4 in human ASPC1 cells at 0.2 uM incubated for 1 hr in presence of 4-(((4-(benzo[d]thiazol-2-yl)phenyl)(methyl)amino)methyl)-N-ethynyl-N-methylbenzenesulfonamide; type: cell-based
[18] = target: T1, Phospholipid hydroperoxide glutathione peroxidase GPX4 (Homo sapiens); experiment: Competitive binding affinity to GPX4 in human ASPC1 cells at 0.2 uM incubated for 1 hr in presence of ML210 by immunofluorescence based confocal microscopic analysis; type: cell-based
ASPC1 [19] = experiment: Induction of apoptosis in human ASPC1 cells at 20 to 200 nM incubated for 48 hrs by FITC based flow cytometry analysis; type: functional, cell-based; conditions: dose 20-200 nM
ASPC1 [20] = experiment: Induction of ferroptosis in human ASPC1 cells assessed as decrease in intracellular GSH level at 5 uM incubated for 5 hrs in absence of […]; type: functional, cell-based
ASPC1 [21] = experiment: Induction of ferroptosis in human ASPC1 cells assessed as effect on ROS level at 1 uM incubated for 3 hrs in absence of […]; type: functional, cell-based
ASPC1 [22] = experiment: Induction of ferroptosis in human ASPC1 cells assessed as effect on ROS level at 1 uM incubated for 3 hrs in presence of […]; type: functional, cell-based
ASPC1 [23] = experiment: Induction of ferroptosis in human ASPC1 cells assessed as reduction in cell viability incubated for 24 hrs followed by compound washout by CCK-8 assay; type: functional, cell-based; conditions: ASPC1, 24 h
ASPC1 [24] = experiment: Induction of ferroptosis in human ASPC1 cells assessed as reduction in cell viability incubated for 48 hrs followed by compound washout by CCK-8 assay; type: functional, cell-based; conditions: ASPC1, 48 h
ASPC1 [25] = experiment: Induction of ferroptosis in human ASPC1 cells assessed as reduction in cell viability incubated for 72 hrs followed by compound washout by CCK-8 assay; type: functional, cell-based; conditions: ASPC1, 72 h
ASPC1 [26] = experiment: Induction of ferroptosis in human ASPC1 cells with siRNA mediated GPX4 knockdown assessed as reduction in cell viability incubated for 72 hrs by CCK-8 assay; type: functional, cell-based
Mus musculus = experiment: In vivo target engagement at GPX4 in SCID mouse at 10 mg/kg, ip qd administered for 14 days and measured after 2 hrs by pull-down based Western blot analysis; type: functional, organism-based; conditions: time 14.0 day

Structure (SMILES): C#CCN(Cc1ccc(S(=O)(=O)N(C)C#C)cc1)c1ccc(-c2nc3ccccc3s2)cc1
- IC50 (ASPC1 [1]): 22 nM
- IC50 (CFPAC-1): 20 nM
- IC50 (BXPC-3): 20 nM
- IC50 (HPAF-II): 20 nM
- AUC(0-t) at 48 h [2]: 915 ng·h/mL
- Activity [3]: Non-Toxic
- Activity [4]: Tde
- Activity [5]: Dose-Dependent Effect
- Activity [6]: Active
- Activity [7]: Active
- Activity [8]: Active
- Activity [9]: Active
- Activity [10]: Active
- Activity [11]: Active
- Activity [12]: inactive
- Activity [13]: Active
- Activity [14]: Active
- Activity [15]: Active
- Activity [16]: Active
- Activity (Homo sapiens): Active
- Activity [17]: Active
- Activity [18]: inactive
- Activity (ASPC1 [19]): inactive
- Activity (ASPC1 [20]): Active
- Activity (ASPC1 [21]): Active
- Activity (ASPC1 [22]): Active
- IC50 (ASPC1 [23]): 62 nM
- IC50 (ASPC1 [24]): 33 nM
- IC50 (ASPC1 [25]): 29 nM
- Activity (ASPC1 [26]): Active
- Activity (Mus musculus): Active
